According to patent US6589993B2, “Treating vancomycin-intermediates and multiresistant staphylococci infection with thiamphenicol or a salt thereof” (Zambon Group S.p.A., priority 2000, dated 2003):
≈ marks a conversion by molar mass, not a printed value. Read-outs that look alike come from different tables or passages of the source. One block for each molecule: values may come before it.

Key:
[1] = system: S. aureus Met-R multiresistant strains; experiment: MIC determination (NCCLS broth microdilution), methicillin-resistant multiresistant S. aureus strains; type: cell-based, Staphylococcus aureus; conditions: for MIC: antibiotype Oxa, Ery, read-out: MIC
Description: (§1) The MICs of thiamphenicol and of other antibiotics was obtained by using the method proposed by NCCLS (National Committee for Clinical Laboratory Standards, 1999).
(§2) Various antibiotic concentrations were added to bacteria in exponental growth (final inoculum 5×10^5 […]); dilution in Mb (cation-supplemented Mueller-Hinton broth) and distribution on a microplate by using an automatic diluting machine Biomek 1000 (Beckman, USA). MHb charged with 2% NaCl was used to test the methicillin activity.
(§3) The antibiotic concentration which hinders a visible growth after 18-24 hours of incubation at 37° C., was registered as MIC.
(§4) S. aureus ATCC 29213 was used as quality control strain.

[2] = system: S. aureus vancomycin-intermediates (VISA) Met-R strains; experiment: MIC determination (NCCLS broth microdilution), VISA Met-R strains; type: cell-based, Staphylococcus aureus; conditions: for MIC: antibiotype Oxa, Cip, Clin, Ery
Description: as §1, §2, §3, §4

[3] = Staphylococcus aureus, Strain 1, Cip, Clin, Gm
[4] = Staphylococcus aureus, Strain 2, Clin, Fos
[5] = Staphylococcus aureus, Strain 3, Cip, Clin, Gm
[6] = Staphylococcus aureus, Strain 4, Cip, Gm
[7] = Staphylococcus aureus, Strain 5, Cip, Clin
[8] = Staphylococcus aureus, Strain 6, Clin, Gm
[9] = Staphylococcus aureus, Strain 7, Cip, Gm
[10] = Staphylococcus aureus, Strain 8, Cip, Clin
[11] = Staphylococcus aureus, Strain 9, Cip, Clin, Gm
[12] = Staphylococcus aureus, Strain 10, Cip, Clin, Gm
[13] = Staphylococcus aureus, Strain 11, Clin, Rif
[14] = Staphylococcus aureus, Strain 12, Cip, Clin
[15] = Staphylococcus aureus, Strain 13, Cip, Clin
[16] = Staphylococcus aureus, Strain 14, Clin, Cip
[17] = Staphylococcus aureus, Strain 15, Cip, Clin, Gm
[18] = Staphylococcus aureus, Strain 16, Cip, Clin
[19] = Staphylococcus aureus, Strain 17, Cip, Clin
[20] = Staphylococcus aureus, Strain 18, Cip, Clin, Gm
[21] = Staphylococcus aureus, Strain 19, Cip, Clin, Gm
[22] = Staphylococcus aureus, Strain 20, Cip, Clin, Gm
[23] = Staphylococcus aureus, Strain 21, Cip, Clin, Gm
[24] = Staphylococcus aureus, Strain 22, Cip, Clin
[25] = Staphylococcus aureus, Strain 23, Cip, Clin, Gm
[26] = Staphylococcus aureus, Strain 24, Cip, Clin, Gm
[27] = Staphylococcus aureus, Strain 25, Cip, Clin, Gm
[28] = Staphylococcus aureus, Strain 26, Cip, Clin, Fos, Gm
[29] = Staphylococcus aureus, Strain 27, Cip, Clin, Fos, Gm
[30] = Staphylococcus aureus, Strain 28, Cip, Clin, Gm
[31] = Staphylococcus aureus, Strain 29, Clin, Fos
[32] = Staphylococcus aureus, Strain 30, Cip, Clin, Gm, SXT, Dox
[33] = Staphylococcus aureus, Strain 31, Cip, Clin, Fox, Gm
[34] = Staphylococcus aureus, Strain 32, Cip, Clin, Gm, SXT, Rif
[35] = Staphylococcus aureus, Strain 33, Cip, Clin, Gm
[36] = Staphylococcus aureus, Strain 34, Cip, Clin, Gm
[37] = Staphylococcus aureus, Strain 35, Cip, Clin, Gm
[38] = Staphylococcus aureus, Strain 36, Cip, Clin, Fos
[39] = Staphylococcus aureus, Strain 37, Cip, Clin, Fos, Gm
[40] = Staphylococcus aureus, Strain 38, Cip, Gm
[41] = Staphylococcus aureus, Strain 39, Cip, Clin, Fos, Gm
[42] = Staphylococcus aureus, Strain 40, Cip, Clin, Gm
[43] = Staphylococcus aureus, Strain 41, Cip, Clin
[44] = Staphylococcus aureus, Strain 42, Cip, Clin, Gm
[45] = Staphylococcus aureus, Strain 43, Cip, Clin, Gm
[46] = Staphylococcus aureus, Strain 44, Cip, Clin, Gm, Rif, Dox
[47] = Staphylococcus aureus, Strain 45, Cip, Clin, Gm, Rif, Dox, Fos
[48] = Staphylococcus aureus, Strain 46, Clin, Fos
[49] = Staphylococcus aureus, Strain 47, Cip, Clin, Gm
[50] = Staphylococcus aureus, Strain 48, Cip, Clin
[51] = Staphylococcus aureus, Strain 49, Cip, Gm
[52] = Staphylococcus aureus, Strain 50, Cip, Clin, Gm, Rif, Dox
[53] = Staphylococcus aureus, Strain 51 VISA, read-out: MIC

MIC Range ([1]; S. aureus (50) Met-R): 4 to 64 mg/L
MIC [1, 3]: 4 µg/mL (≈ 12.4 µM)
MIC [1, 4]: 64 µg/mL (≈ 198 µM)
MIC [1, 5]: 4 µg/mL (≈ 12.4 µM)
MIC [1, 6]: 4 µg/mL (≈ 12.4 µM)
MIC [1, 7]: 64 µg/mL (≈ 198 µM)
MIC [1, 8]: 64 µg/mL (≈ 198 µM)
MIC [1, 9]: 8 µg/mL (≈ 24.8 µM)
MIC [1, 10]: 64 µg/mL (≈ 198 µM)
MIC [1, 11]: 8 µg/mL (≈ 24.8 µM)
MIC [1, 12]: 4 µg/mL (≈ 12.4 µM)
MIC [1, 13]: 64 µg/mL (≈ 198 µM)
MIC [1, 14]: 64 µg/mL (≈ 198 µM)
MIC [1, 15]: 8 µg/mL (≈ 24.8 µM)
MIC [1, 16]: 8 µg/mL (≈ 24.8 µM)
MIC [1, 17]: 8 µg/mL (≈ 24.8 µM)
MIC [1, 18]: 8 µg/mL (≈ 24.8 µM)
MIC [1, 19]: 8 µg/mL (≈ 24.8 µM)
MIC [1, 20]: 64 µg/mL (≈ 198 µM)
MIC [1, 21]: 8 µg/mL (≈ 24.8 µM)
MIC [1, 22]: 64 µg/mL (≈ 198 µM)
MIC [1, 23]: 64 µg/mL (≈ 198 µM)
MIC [1, 24]: 8 µg/mL (≈ 24.8 µM)
MIC [1, 25]: 64 µg/mL (≈ 198 µM)
MIC [1, 26]: 64 µg/mL (≈ 198 µM)
MIC [1, 27]: 8 µg/mL (≈ 24.8 µM)
MIC [1, 28]: 8 µg/mL (≈ 24.8 µM)
MIC [1, 29]: 8 µg/mL (≈ 24.8 µM)
MIC [1, 30]: 64 µg/mL (≈ 198 µM)
MIC [1, 31]: 8 µg/mL (≈ 24.8 µM)
MIC [1, 32]: 8 µg/mL (≈ 24.8 µM)
MIC [1, 33]: 8 µg/mL (≈ 24.8 µM)
MIC [1, 34]: 64 µg/mL (≈ 198 µM)
MIC [1, 35]: 64 µg/mL (≈ 198 µM)
MIC [1, 36]: 64 µg/mL (≈ 198 µM)
MIC [1, 37]: 8 µg/mL (≈ 24.8 µM)
MIC [1, 38]: 8 µg/mL (≈ 24.8 µM)
MIC [1, 39]: 8 µg/mL (≈ 24.8 µM)
MIC [1, 40]: 8 µg/mL (≈ 24.8 µM)
MIC [1, 41]: 8 µg/mL (≈ 24.8 µM)
MIC [1, 42]: 8 µg/mL (≈ 24.8 µM)
MIC [1, 43]: 8 µg/mL (≈ 24.8 µM)
MIC [1, 44]: 8 µg/mL (≈ 24.8 µM)
MIC [1, 45]: 8 µg/mL (≈ 24.8 µM)
MIC [1, 46]: 8 µg/mL (≈ 24.8 µM)
MIC [1, 47]: 8 µg/mL (≈ 24.8 µM)
MIC [1, 48]: 8 µg/mL (≈ 24.8 µM)
MIC [1, 49]: 8 µg/mL (≈ 24.8 µM)
MIC [1, 50]: 64 µg/mL (≈ 198 µM)
MIC [1, 51]: 8 µg/mL (≈ 24.8 µM)
MIC [1, 52]: 64 µg/mL (≈ 198 µM)
MIC50 ([1]; Staphylococcus aureus, S. aureus (50) Met-R, read-out: MIC 50%): 8 µg/mL (≈ 24.8 µM)
MIC90 ([1]; Staphylococcus aureus, S. aureus (50) Met-R, read-out: MIC 90%): 64 µg/mL (≈ 198 µM)
MIC [2, 53]: 8 µg/mL (≈ 24.8 µM)
MIC ([2]; Strain 52 VISA): 8 µg/mL (≈ 24.8 µM)
MIC Range ([2]; VISA (2) Met-R): 8 mg/L (≈ 24.8 µM)
Structure (SMILES): O=C(N[C@H](CO)[C@H](O)c1ccc([N+](=O)[O-])cc1)C(Cl)Cl [Cloramphenicol, cloramphenicol]
% susceptible at breakpoint ([1]; S. aureus (50) Met-R, NCCLS (1999) breakpoints): 66%
% susceptible at breakpoint ([2]; VISA (2) Met-R, NCCLS (1999) breakpoints): 100%

MIC [1, 3]: > 64 µg/mL
MIC [1, 4]: > 64 µg/mL
MIC [1, 5]: > 64 µg/mL
MIC [1, 6]: > 64 µg/mL
MIC [1, 7]: > 64 µg/mL
MIC [1, 8]: > 64 µg/mL
MIC [1, 9]: 32 µg/mL (≈ 84.1 µM)
MIC [1, 10]: > 64 µg/mL
MIC [1, 11]: > 64 µg/mL
MIC [1, 12]: > 64 µg/mL
MIC [1, 13]: > 64 µg/mL
MIC [1, 14]: > 64 µg/mL
MIC [1, 15]: > 64 µg/mL
MIC [1, 16]: > 64 µg/mL
MIC [1, 17]: > 64 µg/mL
MIC [1, 18]: > 64 µg/mL
MIC [1, 19]: 64 µg/mL (≈ 168 µM)
MIC [1, 20]: > 64 µg/mL
MIC [1, 21]: > 64 µg/mL
MIC [1, 22]: > 64 µg/mL
MIC [1, 23]: > 64 µg/mL
MIC [1, 24]: > 64 µg/mL
MIC [1, 25]: > 64 µg/mL
MIC [1, 26]: > 64 µg/mL
MIC [1, 27]: > 64 µg/mL
MIC [1, 28]: > 64 µg/mL
MIC [1, 29]: > 64 µg/mL
MIC [1, 30]: > 64 µg/mL
MIC [1, 31]: > 64 µg/mL
MIC [1, 32]: 64 µg/mL (≈ 168 µM)
MIC [1, 33]: > 64 µg/mL
MIC [1, 34]: > 64 µg/mL
MIC [1, 35]: > 64 µg/mL
MIC [1, 36]: > 64 µg/mL
MIC [1, 37]: > 64 µg/mL
MIC [1, 38]: > 64 µg/mL
MIC [1, 39]: 64 µg/mL (≈ 168 µM)
MIC [1, 40]: > 64 µg/mL
MIC [1, 41]: 64 µg/mL (≈ 168 µM)
MIC [1, 42]: > 64 µg/mL
MIC [1, 43]: > 64 µg/mL
MIC [1, 44]: > 64 µg/mL
MIC [1, 45]: > 64 µg/mL
MIC [1, 46]: 64 µg/mL (≈ 168 µM)
MIC [1, 47]: > 64 µg/mL
MIC [1, 48]: > 64 µg/mL
MIC [1, 49]: > 64 µg/mL
MIC [1, 50]: 64 µg/mL (≈ 168 µM)
MIC [1, 51]: > 64 µg/mL
MIC [1, 52]: > 64 µg/mL
MIC [2, 53]: > 64 µg/mL
MIC ([2]; Strain 52 VISA): >64 µg/mL
Structure (SMILES): COc1cccc(OC)c1C(=O)N[C@@H]1C(=O)N2[C@@H]1SC(C)(C)[C@@H]2C(=O)O [Meth, methicilline]
